Source: PubChem BioAssay (NCI)
Values joined by “and” are separate entries in the source; they are usually repeats but may differ in a detail not shown here. Equal entries are not always repeated.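 Each compound was tested at five concentrations against cells in 96-well plates for 48 hours. GI50: concentration for 50% inhibition of growth. The concentration for full growth arrest is given as TGI.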

What was measured:
Assay in all cases: NCI tumour cell line growth inhibition, 48 h
HL-60(TB) leukemia = system: HL-60(TB) leukemia
RXF 393 renal = system: RXF 393 renal
DMS 273 small cell lung = system: DMS 273 small cell lung
SF-539 CNS = system: SF-539 CNS
SN12C renal = system: SN12C renal
HCC-2998 colon = system: HCC-2998 colon
SK-OV-3 ovarian = system: SK-OV-3 ovarian
COLO 205 colon = system: COLO 205 colon
SNB-78 CNS = system: SNB-78 CNS
KM12 colon = system: KM12 colon

Row | Compound | TGI (HL-60(TB) leukemia) | TGI (RXF 393 renal) | TGI (DMS 273 small cell lung) | TGI (SF-539 CNS) | TGI (SN12C renal) | TGI (HCC-2998 colon) | TGI (SK-OV-3 ovarian) | TGI (COLO 205 colon) | TGI (SNB-78 CNS) | TGI (KM12 colon) | GI50 (HL-60(TB) leukemia) | GI50 (RXF 393 renal) | GI50 (DMS 273 small cell lung) | GI50 (SN12C renal) | GI50 (HCC-2998 colon) | GI50 (SK-OV-3 ovarian) | GI50 (COLO 205 colon) | GI50 (SNB-78 CNS) | GI50 (KM12 colon) | GI50 (SF-539 CNS)
1 | COc1cc2c(cc1OC)[C@@H]([C@H](O)c1ccccc1)NCC2 | > 100 µM | > 100 µM | > 100 µM | > 100 µM | > 100 µM | > 100 µM | > 100 µM | > 100 µM | > 100 µM | > 100 µM | – | – | – | – | – | – | – | – | – | –
2 | Cc1ccc(S(=O)(=O)SCc2ccccc2)cc1 | 5.76 µM | 69.2 µM | > 69.5 µM | 45.7 µM | 50.4 µM | 57.4 µM | > 95.9 µM | 27.4 µM | 30 µM | 57.6 µM | – | – | – | – | – | – | – | – | – | –
3 | CN1C(=O)C(=CN(C)c2ccccc2)C(=O)N(C)C1=O | > 100 µM | > 100 µM | > 100 µM | > 100 µM | > 100 µM | > 100 µM | – | – | > 100 µM | > 100 µM | – | – | – | – | – | – | – | – | – | –
4 | COc1ccc2c(c1)CCN1C3=C(CCC3)C(=O)C[C@@H]21 | > 100 µM | > 100 µM | > 100 µM | > 100 µM | > 100 µM | > 100 µM | > 100 µM | > 100 µM | > 100 µM | > 100 µM | – | – | – | – | – | – | – | – | – | –
5 | O=C(Sc1sc(=S)sc1SC(=O)c1ccccc1)c1ccccc1 | > 100 µM | > 100 µM | > 100 µM | > 100 µM | > 100 µM | > 100 µM | 41.4 µM | > 100 µM | > 100 µM | > 100 µM | – | – | – | – | – | – | – | – | – | –
6 | Cc1cc(NS(=O)(=O)c2ccc(Nc3c4ccccc4nc4c(C(=O)Nc5ccc(S(=O)(=O)N=C(N)N)cc5)ccc(Cl)c34)cc2)no1 | 68.8 µM | 72.9 µM | > 100 µM | 41.7 µM | > 100 µM | > 100 µM | 95.4 µM | > 100 µM | 97.7 µM | > 100 µM | – | – | – | – | – | – | – | – | – | –
7 | Cc1cc(NS(=O)(=O)c2ccc(NC(=O)COC(=O)c3cccc4c(=O)c5ccccc5[nH]c34)cc2)no1 | > 100 µM | > 100 µM | > 100 µM | > 100 µM | > 100 µM | > 100 µM | > 100 µM | > 100 µM | > 100 µM | > 100 µM | – | – | – | – | – | – | – | – | – | –
8 | O=C1N[C@H]2[C@H](O)[C@H](O)[C@@H](O)[C@H](O)[C@@H]2c2cc3c(c(O)c21)OCO3 | 0.331 µM and 0.0744 µM | – | 0.466 µM | – | 2.11 µM and 0.28 µM | 0.279 µM and 0.148 µM | – | – | – | 2.8 µM and 0.41 µM | 194 nM and 78.3 nM | 148 nM and 423 nM | 3.09 µM | 206 nM and 246 nM | 61.8 nM | 300 nM and 330 nM | 12.8 µM | 248 nM and 2040 nM | 234 nM | –
9 | CCN(CC)CCC(=O)/C=C/c1ccc(C)cc1 | 33.6 µM | 29.2 µM | 25.5 µM | 19.1 µM | 24.8 µM | 32.6 µM | 35.1 µM | 16.8 µM | 79.3 µM | 7.98 µM | – | – | – | – | – | – | – | – | – | –
10 | C[C@@](O)(/C=C/[C@H]1CC=CC(=O)O1)[C@@H](C[C@@H](O)\C=C/C=C\C=C\CO)OP(=O)(O)O | 2.99 µM | 23.8 µM and 13 µM | 167 µM | 11.5 µM and 23 µM | 80.5 µM | 22.3 µM | 31.4 µM | 18.2 µM and 18.7 µM | 60.8 µM and > 58.8 µM | 32.2 µM and 37.8 µM | – | – | – | – | – | – | – | 11300 nM | – | 5.28 µM
